Data: patent US20070092551A1, “Therapeutic agent” (TAKARA BIO INC., priority 2003, published 2007)
Read-outs that look alike come from different tables or passages of the source.

Tested on: mature adipocytes (3T3-L1 cells)
Assay: Enhancing action on glucose uptake (2-deoxyglucose) into mature adipocytes
Type: cell-based
Conditions: Mus musculus
Description: The induction of differentation into nature adipocytes was carried out by partially modifying the above-mentioned method of Rubin C. S. et al. 3T3-L1 cells (ATCC CCL-92.1) were suspended in a 10% fetal bovine serum (manufactured by Bio Whittaker)-containing Dulbecco's modified Eagle's medium (manufactured by Sigma, D6046) containing 200 μM ascorbic acid so as to have a density of 4×10^3 cells/mL, and the suspension was put in each well of a collagen type I-coated 12-well plate (Iwaki Glass Co., Ltd., code 4815-010) in an amount of 2 mL per well. The cells were cultured at 37° C. for 7 days in the presence of 5% carbon dioxide gas. On the seventh day, the medium was exchanged with 2 mL of a 10% fetal bovine serum (manufactured by Bio Whittaker)-containing Dulbecco's modified Eagle's medium containing 200 μM ascorbic acid, 0.25 μM dexamethasone, 10 μg/mL insulin (manufactured by TAKARA BIO INC.) and 0.5 mM 3-isobutyl-1-methylxanthine (manufactured by nacalai tesque, 19624-86). After 45 hours, the medium was exchanged with 2 mL of a 10% fetal bovine serum-containing Dulbecco's modified Eagle's medium containing 200 μM ascorbic acid and 5 μg/mL insulin. The medium was exchanged on after 2 days and 5 days, and the cells were cultured for 7 days, to give mature adipocytes.
As the evaluation of the enhancing action on glucose uptake, and also as the evaluation of the insulin-mimetic action, the amount of 2-deoxyglucose uptake into mature adipocytes during the stimulation of the test compound in the adipocytes was determined. As a test compound, a compound prepared in the Examples mentioned above or a commercially available compound was used.
After the termination of the culture, the medium was removed, and the cells were washed twice with a 0.1% (w/v) bovine serum albumin (manufactured by Sigma, A8022)-containing Dulbecco's modified Eagle's medium. Thereafter, 1 mL of the same medium containing a test compound in a concentration shown in each of Tables 20 to 23 was put to each well. The cells were cultured overnight at 37° C. in the presence of 5% carbon dioxide gas. Here, a group without containing the test compound was set as a negative control. After the overnight culture, the cells were washed twice with a HEPES buffer (140 mM NaCl, 5 mM KCl, 2.5 mM MgSO4, 1 mM CaCl2, 20 mM HEPES-Na (pH 7.4)). The amount 0.9 mL of the buffer containing a test compound in the same concentration was added to each well. The cells were cultured at 37° C. for 75 minutes. During the culture, as a positive control, there was set a group with addition of insulin to the well without addition of a test compound at a point 45 minutes passed so as to have a final concentration of 1 μg/mL. Thereafter, 100 μL of a HEPES buffer containing 0.5 μCi/mL 2-deoxy-[1,2-^3H(N)]-glucose (manufactured by PerkinElmer Life Sciences Inc., NET549A) and 1 mM 2-deoxyglucose (manufactured by nacalai tesque, 10722-11) was added thereto. The cells were cultured at 37° C. for additional 10 minutes. After the termination of the culture, the supernatant was removed, and the cells were washed three times with a phosphate buffer cooled to 4° C. Thereafter, 0.5 mL of a 1% Nonidet P-40-containing phosphate buffer was added to lyse the cells, whereby 2-deoxy-[1,2-^3H(N)]-glucose subjected to uptake into the cells was eluted. The radioactivity was determined with a liquid scintillation counter LS6500 (manufactured by Beckmann) using 25 μL of the supernatant with Ultima Gold (manufactured by PerkinElmer Life Sciences Inc., 6013329) as a scintillation cocktail. The enhancing action on glucose uptake was calculated by the following calculation formula, and shown by four ranks of +++, ++, + and +/−. • S: Amount of 2-deoxyglucose uptake in the presence of a test compound; • N: Amount of 2-deoxyglucose uptake in the negative control; and • P: Amount of 2-deoxyglucose uptake in the positive control; X=(S−N)/(P−N) (Judgment of Enhancing Action for 2-Deoxyglucose Uptake)

[1] = 3T3-L1, 3 μM, X=(S−N)/(P−N) of 2-deoxyglucose uptake, P=insulin 1 μg/mL, read-out: Enhancing Action on Glucose Uptake
[2] = 3T3-L1, 10 μM, X=(S−N)/(P−N) of 2-deoxyglucose uptake, P=insulin 1 μg/mL, read-out: Enhancing Action on Glucose Uptake
[3] = 3T3-L1, 30 μM, X=(S−N)/(P−N) of 2-deoxyglucose uptake, P=insulin 1 μg/mL, read-out: Enhancing Action on Glucose Uptake
[4] = 3T3-L1, read-out: Enhancing Action on Glucose Uptake

Compound: O=C(/C=C/c1ccc(O)c(O)c1)c1ccc(Cl)cc1Cl [Compound (C011), 3,4-dihydroxy-2′,4′-dichlorochalcone]
- activation at 3 µM [1]: 15 to 30%
- activation at 10 µM [2]: 60 to 100%
- activation at 30 µM [3]: > 100%

Compound: CCOc1ccc(C(=O)/C=C/c2ccc(O)cc2)c(O)c1C/C=C(\C)CCC=C(C)C [Compound (C050), 4,2′-dihydroxy-3′-geranyl-4′-ethoxychalcone]
- activation at 3 µM [1]: 15 to 30%
- activation at 10 µM [2]: > 100%

Compound: CC(=O)c1ccc(OC2CCCCO2)c(C/C=C(\C)CCC=C(C)C)c1O (stereo not shown) [Compound (C045), 2′-hydroxy-3′-geranyl-4′-tetrahydropyranyloxyacetophenone]
- activation at 10 µM [2]: 15 to 30%
- activation at 30 µM [3]: 30 to 60%

Compound: COc1ccc(C=O)c(O)c1 [2-Hydroxy-4-methoxybenzaldehyde]
- activation at 10 µM [2]: 15 to 30%
- activation at 30 µM [3]: 30 to 60%

Compound: O=C(/C=C/c1ccc(O)c(O)c1)c1ccccc1O [Compound (C005), 3,4,2′-trihydroxychalcone]
- activation at 10 µM [2]: 30 to 60%
- activation at 30 µM [3]: 30 to 60%

Compound: O=C(/C=C/c1ccccc1)c1ccccc1 [Chalcone]
- activation at 10 µM [2]: 30 to 60%
- activation at 30 µM [3]: 30 to 60%

Compound: COc1ccc(C(=O)/C=C/c2ccc(OC3CCCCO3)cc2)c(O)c1CC=C(C)C (stereo not shown) [Compound (C030), 4-tetrahydropyranyloxy-2′-hydroxy-3′-prenyl-4′-methoxychalcone]
- activation at 10 µM [2]: 30 to 60%
- activation at 30 µM [3]: > 100%

Compound: CC(C)=CCC/C(C)=C/CC/C(C)=C/Cc1c(O)ccc(C(=O)/C=C/c2ccc(O)cc2)c1O [Compound (C058), 4,2′,4′-trihydroxy-3′-farnesylchalcone]
- activation at 30 µM [3]: > 100%

Compound: COc1ccc(C(=O)/C=C/c2ccc(O)c(O)c2)c(O)c1CC=C(C)C [Compound (C031), 3,4,2′-trihydroxy-3′-prenyl-4′-methoxychalcone]
- activation at 10 µM [2]: 15 to 30%
- activation at 30 µM [3]: > 100%

Compound: CC(C)=CCCC1(C)C=Cc2c(ccc(C(=O)/C=C/c3ccc(O)cc3)c2O)O1 (stereo not shown) [Lespeol]
- activation at 10 µM [2]: 60 to 100%
- activation at 30 µM [3]: 60 to 100%

Compound: C/C=C(/C)C(=O)OC1c2c(ccc3ccc(=O)oc23)OC(C)(C)C1OC(C)=O (stereo not shown) [Coumarin Compound A, 3′-acetoxy-4′-angeloyloxy-3′,4′-dihydroseselin]
- activation at 10 µM [2]: > 100%
- activation at 30 µM [3]: > 100%

Compound: COc1ccc(C(=O)/C=C/c2ccc(O)cc2)c(O)c1C/C=C(\C)CC/C=C(\C)CCC=C(C)C [Compound (C053), 4,2′-dihydroxy-3′-farnesyl-4′-methoxychalcone]
- activation at 3 µM [1]: 30 to 60%
- activation at 10 µM [2]: > 100%
- activation at 30 µM [3]: > 100%

Compound: COc1ccc(C(=O)/C=C/c2ccc(O)cc2)c(O)c1CC1C2(C)CCC(O2)C1(C)C (stereo not shown) [TB7, 1-[3-(2,5-epoxy-2,6,6-trimethyl-cyclohexylmethyl)-2-hydroxy-4-methoxyphenyl]-3-(4-hydroxyphenyl)-2-propen-1-one]
- activation at 10 µM [2]: > 100%
- activation at 30 µM [3]: > 100%

Compound: CCC/C=C1\OC(=O)c2ccccc21 [n-Butylidenephthalide]
- activation at 3 µM [4]: 30 to 60%
- activation at 10 µM [4]: 60 to 100%
- activation at 30 µM [4]: > 100%

Compound: C/C=C(/C)C(=O)OC1C(O)c2c(ccc3ccc(=O)oc23)OC1(C)C (stereo not shown) [Coumarin Compound C, 3′-angeloyloxy-4′-hydroxy-3′,4′-dihydroseselin]
- activation at 30 µM [3]: 30 to 60%

Compound: CCCCC1OC(=O)C2=CCCCC21 (stereo not shown) [Sedanolide]
- activation at 10 µM [2]: 15 to 30%
- activation at 30 µM [3]: 60 to 100%

Compound: COc1ccc(C(=O)/C=C/c2ccc(O)cc2)c(O)c1CCC(C)C [Compound (C043), 4,2′-dihydroxy-3′-(3-methylbutyl)-4′-methoxychalcone]
- activation at 3 µM [1]: 15 to 30%
- activation at 10 µM [2]: > 100%

Compound: COc1ccc2c(c1CC=C(C)C)OC(c1ccco1)C(=Cc1ccco1)C2=O (stereo not shown) [Compound (FUR-2), 2-(2-furyl)-3-(2-furylmethylene)-2,3-dihydro-7-methoxy-8-prenyl-4H-1-benzopyran-4-one]
- activation at 3 µM [1]: 15 to 30%
- activation at 10 µM [2]: 30 to 60%
- activation at 30 µM [3]: 30 to 60%

Compound: CC(=O)c1cc(CC=C(C)C)c(O)cc1O [Compound (C025), 2′,4′-dihydroxy-5′-prenylacetophenone]
- activation at 10 µM [2]: 15 to 30%
- activation at 30 µM [3]: 30 to 60%

Compound: C/C=C(/C)C(=O)OC1Cc2c(ccc3ccc(=O)oc23)OC1(C)C (stereo not shown) [Coumarin Compound B, 3′-angeloyloxy-3′,4′-dihydroseselin]
- activation at 10 µM [2]: > 100%
- activation at 30 µM [3]: > 100%

Compound: COc1ccc(C(=O)/C=C/C=C/c2ccccc2)c(O)c1CC=C(C)C [Compound (C-CIN), 1-(2-hydroxy-4-methoxy-3-prenylphenyl)-5-phenyl-2,4-pentadien-1-one]
- activation at 3 µM [1]: 15 to 30%
- activation at 10 µM [2]: 15 to 30%
- activation at 30 µM [3]: > 100%

Compound: O=C(/C=C/c1ccc(O)c(O)c1)c1cc(O)ccc1O [Compound (C006), 3,4,2′,5′-tetrahydroxychalcone]
- activation at 10 µM [2]: 30 to 60%
